Results: patent publication EP0400227A1, “Natriuretic peptides” (Acticor, Inc., priority 1989, dated 1990)
Ends that are not written are not given here.

Test system: rats
Assay: Natriuretic and diuretic effect of intravenous bolus injection in anesthetized rats
Assay type: in vivo, male Sprague-Dawley or Long-Evans rats
Conditions: 30 to 60 minutes after minus 30 to 0 minutes before injection, mean ± SEM
Method: Diuretic and natriuretic activity of the peptides of this invention is assayed in male rats of the Sprague-Dawley or Long-Evans strains. Peptide or vehicle (for control purposes) is administered by intravenous bolus injection or by continuous infusion into one […] of animals anesthetized for the duration of the experiment, or by intramuscular or subcutaneous injection into animals only briefly anesthetized with ether and subsequently conscious and freely moving until completion of the experiment. Timed urine samples are collected for determination of volume and measurement of sodium and potassium concentration by flame photometry. Details of each method are given in Examples II to IV below.
The natriuretic and diuretic effect of intravenous bolus injection of peptides F15R, G13R and E19R was tested in male Sprague-Dawley or Long-Evans rats weighing 300-400 g. The animals were given Inactin®, 120 mg per kg body weight i.p. under light ether anesthesia. Following placement of a tracheal cannula, the right femoral vein was catheterized for infusion of 5% bovine serum albumin at a dose of 0.4% of body weight and at a rate of 6.0 ml/hour. Subsequently, normal saline was infused for the duration of the experiment at a rate of 2.0 ml/hour. The bladder was exposed through an abdominal incision and catheterized for urine collection. Serial 15-minute urine collections in preweighed vials were begun after a recovery period of 45 minutes. After collection of four control samples, the peptide in 0.1 ml of vehicle was injected into the femoral vein over a period of 1 minute and 6 to 10 further urine samples were collected. Urine volume was determined by weighing and urine sodium and potassium were assayed by flame photometry. All peptides produced natriuresis and diuresis reaching peak levels usually between 30 and 60 minutes after injection. The difference between urine volume and sodium excretion observed from 30 to 60 minutes after and 30 to 0 minutes before peptide administration was calculated for each rat as a measure of activity.

[1] = i.v. 0.100 nmol (0.10 nmol for G13R)

| Sequence | Change in Sodium Excretion (i.v. 0.025 nmol) | Change in Urine Volume (i.v. 0.025 nmol) | Change in Sodium Excretion [1] | Change in Urine Volume [1] | Change in Sodium Excretion (i.v. 1.00 nmol) | Change in Urine Volume (i.v. 1.00 nmol) |
| --- | --- | --- | --- | --- | --- | --- |
| ETPMFPGNGDEQPLTENP [E19R] | 6.50 ± 3.60 µeq/30 minutes | 89.0 ± 43.6 µl/30 minutes | 12.07 ± 5.08 µeq/30 minutes | 104.2 ± 58.0 µl/30 minutes | – | – |
| GNGDEQPLTPNPR [G13R] | – | – | 8.39 ± 4.41 µeq/30 minutes | 80.0 ± 29.2 µl/30 minutes | 12.48 ± 6.22 µeq/30 minutes | 62.0 ± 17.2 µl/30 minutes |
